Test results reported in patent publication US20160120858A1 (ACADEMIA SINICA, priority 2014, published 2016).
Entries after “also recorded” stand apart in the source; their conditions may differ.

What was measured:
[1] = tested on: NMDAR; experiment: Simultaneous NMDA- and AMPA-eEPSCs at −40 mV, patch-clamp, hippocampal slices; assay type: cell-based, mouse; conditions: for Effect on clioquinol-dependent increase in NMDA/AMPA ratio at −40 mV: WT and KO
Protocol: (§1) For electrophysiological experiments, sagittal hippocampal slices (400 uM thick for extracellular, 300 uM thick for intracellular recordings) of Shank2^−/− mice (or ZnT3^−/− mice) and their wild-type littermates were prepared using a vibratome (Leica VT1200) in ice-cold dissection buffer containing (in mM) 212 sucrose, 25 NaHCO3, 5 KCl, 1.25 NaH2PO4, 0.5 CaCl2, 3.5 MgSO4, 10 D-glucose, 1.25 L-ascorbic acid, and 2 Na-pyruvate bubbled with 95% 02/5% CO2. CA3 was removed to prevent epileptiform activity. Slices were restored for 1 hour in 32° C. in a normal artificial CSF (ACSF) (In units of mM: 124 NaCl, 2.5 kCl, 1 NaH2PO4, 25 NaHCO3, 10 glucose, 2 CaC12, 2 Mg504 oxidized by 95% 02/5% CO2) For the recording, a single slice was moved to and maintained in submerged-type chamber at 28° C., continuously perfused with ACSF (2 mL/minute) saturated with 95% 02/5% CO2. Stimulation and recording pipettes were pulled from borosilicate glass capillaries (Harvard Apparatus) using a micropipette electrode puller (Narishege).
Whole-cell patch-clamp recordings of hippocampal CA1 pyramidal neurons were also made using a MultiClamp 700B amplifier (Molecular Devices) and Digidata 1440A (Molecular Devices). During whole-cell patch-clamp recordings, series resistance was monitored each sweep by measuring the peak amplitude of the capacitance currents in response to short hyperpolarizing step pulse (5 mV, 40 ms); only cells with a change in <25% were included in the analysis. For NMDA (N-Methyl-D-aspartate)/AMPA (alpha-amino-3-hydroxy-5-methylisoxazole-4-propionic acid) ratio experiments, mouse hippocampal slices at the age of postnatal day 17 to 25 were used. The recording pipettes (2.5 to 3.5 MΩ) were filled with an internal solution containing the following (in mM): 100 CsMeSO4, 10 TEA-Cl, 8 NaCl, 10 HEPES, 5 QX-314-C1, 2 Mg-ATP, 0.3 Na-GTP, 10 EGTA, with pH 7.25, 295 mOsm). CA1 pyramidal neurons were voltage-clamped at −70 mV, and EPSPs were evoked at every 15 sec. AMPAR-mediatedEPSCs were recorded at −70 mV, and 30 consecutive responses were recorded after stable baseline. After recording AMPAR-mediated EPSPs, holding potential was changed to +40 mV to record NMDA receptor-mediated EPSPs. NMDA component was measured at 60 ms after the stimulation. The NMDA/AMPA ratio was determined by dividing the mean value of 30 NMDA components of EPSPs by the mean value of 30 AMPAR-mediated EPSC peak amplitudes. […] For measuring AMPAR-mediated and NMDAR-mediated EPSCs together upon CQ treatment, pyramidal neurons were voltage-clamped at −40 mV, and EPSCs were evoked at every 15 sec. AMPAR-mediated EPSC was determined as a peak amplitude of EPSC, and NMDAR-mediated EPSC as a component at 60 ms after stimulation. NMDA/AMPA ratio at −40 mV was calculated by using both values, and monitored during the experimental process. […] Picrotoxin (100 uM) was always added to ACSF to block GABAA receptor-mediated currents.

[2] = tested on: NMDAR; experiment: NMDA-fEPSP extracellular recordings, hippocampal slices; assay type: cell-based, mouse; conditions: for Effect on clioquinol-dependent increase in NMDAR activity (NMDA-fEPSPs): applied to hippocampal slices before clioquinol treatment
Protocol: as §1
For extracellular recordings, mouse hippocampal slices at the age of postnatal day 21 to 35 were used. Field excitatory postsynaptic potentials (fEPSPs) were recorded in the stratum radiatum of the hippocampal CA1 region using pipettes filled with ACSF (1 MΩ). fEPSP was amplified (Multiclamp 700B, Molecular Devices), and digitized (Digidata 1440A, Molecular
Devices) for measurements. The Schaffer collateral pathway was stimulated every 20 seconds with pipettes filled with ACSF (0.3 to 0.5 MΩ). The stimulation intensity was adjusted to yield a half-maximal response, and three successive responses were averaged and expressed relative to the normalized baseline. To induce LTP, high frequency stimulation (100 Hz, 1 s) was applied after a stable baseline was acquired. […] To isolate NMDAR-mediated fEPSPs, ACSF containing 2 mM calcium, 0.1 mM magnesium, and 6,7-dinitroquinoxaline-2,3-dione (10 uM, DNQX, Tocris), which inhibits AMPAR-mediated EPSPs, were used.

[3] = tested on: Tbr1^+/− mice; conditions: reported by Huang et al. 2014; cited from earlier work

## NC(CCCP(=O)(O)O)C(=O)O (stereo not drawn) [AP5]
[1]; D-AP5 50 uM, 10 minutes, after CQ
  NMDA-eEPSCs at −40 mV: significantly reduced

## O=C([O-])CN(CCN(CC(=O)[O-])CC(=O)[O-])CC(=O)[O-].[Ca+2].[Na+].[Na+] [Ca-EDTA]
[2]; Ca-EDTA 2 mM, during and after the treatment, WT and KO
  NMDAR function (NMDA-fEPSPs), substance alone: did not affect NMDA-fEPSP; also recorded: has no effect on NMDAR function
[2]
  Effect on clioquinol-dependent increase in NMDAR activity (NMDA-fEPSPs): eliminated the clioquinol-dependent increase in NMDAR activity

## N[C@@H]1CONC1=O [D-cycloserine]
[3]
  Reduction in social interaction: normalized

## CC(C)(C)n1nc(-c2ccc(Cl)cc2)c2c(N)ncnc21 [PP2]
[2]
  Effect on clioquinol-dependent increase in NMDAR activity (NMDA-fEPSPs): removed clioquinol activation of NMDAR

## Nc1ncnc2c1cnn2-c1ccccc1 [PP3]
[2]
  Effect on clioquinol-dependent increase in NMDAR activity (NMDA-fEPSPs): failed to block the NMDAR activation

## CN(C)S(=O)(=O)c1ccc2c(c1)/C(=C/c1cc3c([nH]1)CCCC3)C(=O)N2 [SU6656]
[2]
  Effect on clioquinol-dependent increase in NMDAR activity (NMDA-fEPSPs): removed clioquinol activation of NMDAR

## O=C(NN=C1CCCCC1)C(=O)NN=C1CCCCC1 [cuprizone]
[2]
  Effect on clioquinol-dependent increase in NMDAR activity (NMDA-fEPSPs): did not inhibit the clioquinol-induced increase in NMDAR activity

## Src (40-58): Src-inhibitory peptide with a sequence corresponding to Src amino acid residues 40-58 (KPASADGHRGPSAAFAPAA; UniProt P12931 40-58, looked up, fragment)
[1]; peptide in the patch pipette, 0.03 mg/mL, Shank2^−/− and wild-type synapses
  Effect on clioquinol-dependent increase in NMDAR activity (NMDA-eEPSCs): prevented clioquinol from increasing NMDAR activity
[1]; peptide in the patch pipette, 0.03 mg/mL
  Effect on clioquinol-dependent increase in NMDA/AMPA ratio at −40 mV: blocks CQ-dependent NMDAR activation
[1]; peptide in the patch pipette, 0.03 mg/mL, listed as Src-inhibitory peptide
  Effect on clioquinol-dependent increase in NMDA/AMPA ratio at −40 mV: blocked
[1]; peptide in the patch pipette, wild-type and Shank2^−/− synapses
  AMPAR function (AMPA-eEPSCs): unaffected
